This passage reports TGI results from PubChem BioAssay (NCI).

Among the test systems are U251 CNS; SK-MEL-2 melanoma; HS 578T breast; UO-31 renal; MALME-3M melanoma; UACC-62 melanoma; SF-539 CNS; KM12 colon; PC-3 prostate; T-47D breast.
What all share (experiment): DTP human tumour cell line panel, 48 h

The term TGI denotes the concentration giving total growth inhibition.

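Exposure lasted 48 hours, with cells grown in 96-well plates and compounds tested at five concentrations. TGI: concentration producing complete growth inhibition.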

For `CCCCCCCCCCCC(=O)OC[C@H](C[As](=O)(O)O)OC(=O)CCCCCCCCCCC`, the total growth inhibition concentration (TGI) amounted to 5.15 µM in the test with U251 CNS; 6.48 µM in the test on SK-MEL-2 melanoma; 8.69 µM in the test with HS 578T breast; 29.5 µM in the test on UO-31 renal; 7.14 µM in the test with MALME-3M melanoma; 6.98 µM in the test with UACC-62 melanoma. Besides, the total growth inhibition concentration (TGI) in the test with SF-539 CNS was found to be 38.6 µM; with KM12 colon it was 22 µM; with PC-3 prostate, 10.5 µM; in the test with T-47D breast, 47.2 µM.
As for `CCCNC(=S)N/N=C(\C)c1ccc(S(=O)(=O)N(C)c2ccccc2)cc1`, the concentration for total growth inhibition (TGI) with U251 CNS is above 78 µM; in the test on SK-MEL-2 melanoma, above 100 µM; with HS 578T breast, 24.4 µM; in the test on UO-31 renal, above 100 µM; in the test on MALME-3M melanoma, above 100 µM; in the test with UACC-62 melanoma, above 100 µM. For the same molecule, the concentration for total growth inhibition (TGI) with SF-539 CNS is 21.7 µM; with KM12 colon it was above 100 µM; in the test with PC-3 prostate, above 100 µM; in the test with T-47D breast it was above 100 µM.
For `COc1cc2c(c(OC)c1OC)C(=O)[C@@H]1[C@H]2N1C(=O)NCCCl`, the concentration for total growth inhibition (TGI) with U251 CNS, with SK-MEL-2 melanoma, in the test with HS 578T breast, with UO-31 renal, in the test on MALME-3M melanoma and with UACC-62 melanoma was above 100 µM throughout. For the same molecule, the concentration for total growth inhibition (TGI) in the test with SF-539 CNS, with KM12 colon, in the test on PC-3 prostate and in the test with T-47D breast was above 100 µM in each case.
In the case of `COc1ccc(/C=C/C(=O)/C=C/c2ccc(OC)cc2OC)c(OC)c1`, the TGI with U251 CNS is 23.4 µM; in the test with SK-MEL-2 melanoma, 13.1 µM; in the test with HS 578T breast, above 100 µM; with UO-31 renal it was 41.3 µM; with MALME-3M melanoma it was 26.9 µM; in the test with UACC-62 melanoma it was 52.5 µM. Moreover, the TGI with SF-539 CNS is 36.7 µM; with KM12 colon, above 100 µM; in the test on PC-3 prostate, 44.2 µM; in the test with T-47D breast, above 100 µM.
With `CC(=O)Oc1cc(S(=O)(=O)Nc2n[nH]c(Nc3ccc(C)cc3)n2)c(S)cc1Cl`, the TGI with U251 CNS, with SK-MEL-2 melanoma, with HS 578T breast, in the test on UO-31 renal, in the test on MALME-3M melanoma and in the test on UACC-62 melanoma was above 100 µM each time. Further, the TGI in the test on SF-539 CNS, in the test on KM12 colon, with PC-3 prostate and with T-47D breast was above 100 µM each time.
With `CCOC(=O)CC(c1ccccc1)C(C)(C(=O)OCC)C(=O)OCC` (stereo not given), the total growth inhibition concentration (TGI) in the test with U251 CNS, in the test with SK-MEL-2 melanoma, in the test with HS 578T breast, with UO-31 renal, in the test on MALME-3M melanoma and with UACC-62 melanoma was above 100 µM throughout. For the same molecule, the TGI in the test on SF-539 CNS, in the test with KM12 colon, with PC-3 prostate and in the test with T-47D breast was above 100 µM in each case.
